Consider 15 compounds from patent publication US11548849B2, “Alcohol derivatives as KV7 potassium channel openers” (H. Lundbeck A/S, priority 2019, dated 2023).

In general, EC50 refers to the midpoint of the concentration-response curve.

SMILES strings stand for the structures.

The first assay addresses T1, hKv7.2/hKv7.3 (Homo sapiens, UniProt O43525+O43526).
T1 construct: P2A self-cleaving peptide (between Kv7.3 and Kv7.2; the remnant would stay on the upstream protein) (C); expressed in transfected cells
Kind of assay: Automated whole cell patch-clamp functional test of HEK-hKv7.2/hKv7.3 cell line. To be noted: stable HEK-hKv7.2/hKv7.3 cell line. Format: cell-based. On the procedure:
(§1) A synthesized cDNA fragment encoding human Kv7.3 and human Kv7.2 separated by a P2A sequence was inserted into the pcDNA5/FRT/TO vector using the BamHI and XhoI restriction sites. The construct was then transfected into HEK Flp-In 293 cells using Lipofectamine2000. The transfected cells were grown for 48 hours in DMEM containing 10% (v/v) FBS and 1% PenStrep and subsequently maintained under selection in DMEM containing 10% (v/v) FBS, 1% PenStrep and 200 ug/mL Hygromycin B at 37° C. in a humidified atmosphere of 5% CO2.
(Patch clamp records ionic current or voltage across a cell membrane.)
Take `O=C1c2ccccc2C(Cc2ccncc2)(Cc2ccncc2)c2ccccc21` [XE991]: the “effect on Kv7-current” value is recorded as “sensitive”. `CCOC(=O)Nc1ccc(NCc2ccc(F)cc2)cc1N` [Retigabine, N-(2-amino-4-(4-fluorobenzylamino)-phenyl) carbamic acid ethyl ester]: the “effect on Kv7-current” value was “potentiated”.

A further assay addresses T1, hKv7.2/hKv7.3. Kind of assay: Thallium influx assay for potassium channel activation. Format: cell-based. As to conditions: HEK-hKv7.2/hKv7.3 cells; FLIPR Potassium Assay kit; AUC readout normalized to a reference compound. On the procedure: as §1
The thallium influx assay for potassium channel activation was performed analogously to a published procedure (C. D. Weaver, et al., J Biomol Screen 2004, 9, 671-677) using the FLIPR Potassium Assay kit (Molecular Devices). HEK-hKv7.2/hKv7.3 cells were plated onto 96-well, black-walled, clear-bottomed culture plates (Corning, Acton, Mass., USA) at a density of 80,000 cells/well (100 μl/well) if the cells were assayed the following day, or 40,000 cells/well (100 μl/well) if the cells were assayed two days after seeding.
On the assay day, the medium was removed after which 50 uL/well of test compound diluted to 2× final concentration in HBSS containing 20 mM HEPES, and 50 uL/well of 2× dye load buffer were added. The cells were then incubated for 60 min at room temperature in the dark. Chloride-free stimulation buffer containing Tl^+ and K^+ at 5× final concentration (5× concentration: 5 mM in both cases) and test compound at 1× final concentration, were prepared during the incubation. The cells were then assayed in a FDSS7000EX Functional Drug Screening System (Hamamatsu). Following 60 sec of baseline fluorescence signal reading at 0.1 Hz, and 10 sec at 1 Hz, 25 uL/well of stimulation buffer were added and the fluorescence continuously measured for 50 sec at 1 Hz followed, by 4 min at 0.1 Hz. Compound effect was quantified using AUC as readout and normalized to a reference compound, which was included on each plate.
`COC[C@H](NC(=O)C[C@](C)(O)C1(F)CC1)c1cccc(OC(F)(F)F)c1` (single isomer, unassigned) [Example 36a] gave a 50% effective concentration (EC50) of 2700 nM. As for `C[C@H](NC(=O)C[C@H](O)C(C)(C)C)c1cccc(OC(F)F)c1` [Example 23, (S)—N—((S)-1-(3-(difluoromethoxy)phenyl)ethyl)-3-hydroxy-4,4-dimethylpentanamide], the response was half-maximal at 1500 nM (EC50). As to `O=C(CC1(O)CC(F)(F)C1)N[C@@H](CC(F)F)c1cccc(OC(F)(F)F)c1` [Example 35, (S)—N-(3,3-difluoro-1-(3-(trifluoromethoxy)phenyl)propyl)-2-(3,3-difluoro-1-hydroxycyclobutyl)acetamide], the EC50 is 3500 nM.

The compound `CC[C@H](NC(=O)CC1(O)CC(F)(F)C1)c1cccc(OC(F)(F)F)c1` [Example 33, (S)-2-(3,3-difluoro-1-hydroxycyclobutyl)-N-(1-(3-(trifluoromethoxy)-phenyl)propy) acetamide] gave an EC50 of 2100 nM. With `CC(C)(C)[C@@H](O)CC(=O)N[C@@H](CC(F)F)c1cccc(OC(F)F)c1` [Example 22, (S)—N—((S)-1-(3-(difluoromethoxy)phenyl)-3,3-difluoropropyl)-3-hydroxy-4,4-dimethylpentanamide], the concentration for a half-maximal effect (EC50) came to 4500 nM. As to `O=C(CC(O)C1(C(F)(F)F)CC1)N[C@@H](COC(F)F)c1cccc(OC(F)(F)F)c1` (single isomer, unassigned) [Example 4a], the midpoint of the response, the EC50, lay at 1700 nM. The same measure, in the same setting: under `CC(C)C(C)(O)CC(=O)N[C@@H](COC(F)F)c1cccc(OC(F)F)c1` (single isomer, unassigned) [Example 14a] stands 5200 nM. Still for that read-out and setting: under `COC[C@H](NC(=O)C[C@@](C)(O)C1(F)CC1)c1cccc(OC(F)(F)F)c1` (single isomer, unassigned) [Example 36b] stands 16000 nM; under `CC(C)(C)C(O)CC(=O)N[C@@H](COC(F)F)c1cccc(OC(F)F)c1` (single isomer, unassigned) [Example 1a], 7600 nM; under `CCC1(C(O)CC(=O)N[C@@H](COC(F)F)c2cccc(OC(F)F)c2)CC1` (single isomer, unassigned) [Example 8a], 4800 nM.

On to `O=C(CC(O)C1CC(F)(F)C1)N[C@@H](COC(F)F)c1cccc(OC(F)(F)F)c1` (single isomer, unassigned) [Example 6a], for which the response was half-maximal at 2500 nM (EC50). The compound `O=C(CC1(O)CC(F)(F)C1)N[C@@H](CCC(F)F)c1cccc(OC(F)F)c1` [Example 32, (S)-2-(3,3-difluoro-1-hydroxycyclobutyl)-N-(1-(3-(difluoromethoxy)phenyl)-4,4-difluorobutyl)acetamide] gave an EC50 of 2500 nM. The compound `O=C(CC(O)C1(C(F)(F)F)CC1)N[C@@H](COC(F)F)c1cccc(OC(F)F)c1` (single isomer, unassigned) [Example 3a] had an EC50 of 2800 nM.
